According to paper PMC8333425, “Discovery of a dual Ras and ARF6 inhibitor from a GPCR endocytosis screen” (Nature Communications, 2021):
“And” between values parts separate entries of the source, which are not always exact repeats. Equal values may be shown once.

Target: T1, β-arrestin/AP-2 complex (Homo sapiens, UniProt P63010)
T1 construct: expressed in transfected cells; host or cells: HEK293SL
T1 sequence (P63010 1-937): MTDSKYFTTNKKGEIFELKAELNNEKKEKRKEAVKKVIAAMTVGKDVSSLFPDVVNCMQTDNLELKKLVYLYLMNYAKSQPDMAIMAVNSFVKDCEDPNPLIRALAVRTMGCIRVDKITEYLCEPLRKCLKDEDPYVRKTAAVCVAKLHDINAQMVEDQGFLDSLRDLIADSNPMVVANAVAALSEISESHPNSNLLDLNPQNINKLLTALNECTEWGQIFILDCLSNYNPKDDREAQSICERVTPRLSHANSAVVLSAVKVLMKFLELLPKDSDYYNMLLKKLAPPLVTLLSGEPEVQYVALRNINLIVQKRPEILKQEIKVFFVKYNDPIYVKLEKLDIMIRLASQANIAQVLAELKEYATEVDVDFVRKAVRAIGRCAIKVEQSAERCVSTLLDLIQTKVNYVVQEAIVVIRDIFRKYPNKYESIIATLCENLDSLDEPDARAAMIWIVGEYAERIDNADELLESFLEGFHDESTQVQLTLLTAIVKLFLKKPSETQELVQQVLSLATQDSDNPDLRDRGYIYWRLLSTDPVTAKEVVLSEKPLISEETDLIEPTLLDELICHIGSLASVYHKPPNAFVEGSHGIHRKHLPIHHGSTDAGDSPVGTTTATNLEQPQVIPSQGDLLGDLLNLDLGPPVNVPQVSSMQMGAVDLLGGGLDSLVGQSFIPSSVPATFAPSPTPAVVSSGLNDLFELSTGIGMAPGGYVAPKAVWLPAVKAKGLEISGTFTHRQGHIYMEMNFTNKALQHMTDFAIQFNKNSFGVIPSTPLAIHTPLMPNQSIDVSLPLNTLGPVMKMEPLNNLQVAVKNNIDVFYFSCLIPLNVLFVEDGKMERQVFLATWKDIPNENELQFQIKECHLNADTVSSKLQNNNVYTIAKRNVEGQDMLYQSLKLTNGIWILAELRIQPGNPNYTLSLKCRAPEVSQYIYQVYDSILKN
Experiment: BRET sensor of β-arrestin2 binding to AP-2 (β2-Adaptin-YFP), AT1R-mediated
Assay type: cell-based
Details: for AngII-promoted BRET, binding of β-arrestin2 to AP-2: individual experiments
Method: HEK293 cells were transfected with a BRET sensor that monitors the interaction between β-arrestins and the β-appendage of AP-2 (Fig. 2a)[26],[33]. […] The small GTPase ARF6, which binds β-arrestins and facilitates AP-2 and clathrin recruitment at the PM, is also necessary for CCPs initiation and receptor internalization. Therefore, ARF6 activity was assessed using the protein-3 binding domain (PBD) of the golgi-associated, gamma adaptin ear-containing, ARF-binding protein 3 (GGA3) fused to GST (GST-GGA3-PBD) in a pull-down assay, which allows the detection of GTP-bound ARF6 in cells[34] (Fig. 2b). […] This inhibition was selective for ARF6 since 21 had no effect on AT1R-dependent ARF1 activation (Supplementary Fig. 2a). We also devised a BRET assay to quantitatively assess 21’s action on ARF activity. The ARF BRET assay was created using the GGA3-PBD fused to RlucII (GGA3-PBD-RlucII) and the rGFP anchored at the PM (rGFP-CAAX) (Supplementary Fig. 3a). […] 21 blocked ARF’s activation by 40–60% following AT1R stimulation (Fig. 2c).
HEK293SL cells were seeded at a density of 7.5 × 10^5 cells per 100-mm dish and 24 h later, transiently transfected as such. For receptor internalization experiments, cells were transfected with 0.12 μg AT1R-RlucII, B2R-RlucII, or β2AR-RlucII and 0.48 μg of either rGFP-CAAX (to assess removal from the PM) or rGFP-FYVE (to assess accumulation in the endosomes). For β-arrestin recruitment assays, cells were transfected with 0.48 μg of receptor-YFP along with 0.12 μg of β-arrestin-RlucII. For β-arrestin/AP-2 binding experiments, cells were transfected with 1 μg Flag-AT1R, 1 μg β2-Adaptin-YFP, and 0.12 μg β-arrestin2-RlucII. For G protein activation, cells were transfected with 3 μg of sp-Flag-AT1R along with either 4.5 μg of the Gαq-polycistronic BRET sensor or 0.24 μg of the Gαi3-RlucII and 0.6 μg of GFP10-Gγ2 and Gβ1 sensors or 0.12 μg PKN-RBD-RlucII and 0.48 μg of rGFP-CAAX. For PKC activation, cells were transfected with 3 μg of sp-Flag-AT1R and 0.18 μg of the PKC sensor. For GTPase activation experiments, cells were transfected with 1 μg Flag-AT1R, 0.48 μg of rGFP-CAAX, and either 0.12 μg of GGA3-PBD-RlucII, PAK-CRIB-RlucII or Raf-RBD-RlucII. For biosensor validation experiments, cells were additionally transfected with 500 ng Flag-K-Ras-WT, Flag-K-Ras-G12V, Flag-K-Ras-SOS-CAAX, HA-ARF6-WT, HA-ARF6-T27N, Myc-Rac1-WT, Myc-Rac1-Q61L or Myc-Rac1-T17N. For PI3K/Akt activation experiments, cells were transfected with 0.48 μg of rGFP-CAAX and 0.12 μg of Akt (PH)-RlucII. After 18 h of transfection, the media was replaced and cells were divided for subsequent experiments. Cells were detached and seeded onto poly-L-ornithine-coated 96-well flat white bottom plates (BrandTech Scientific) at a density of 2.5 × 10^4 cells per well in media. The next day, cells were washed once with Tyrode’s buffer (140 mM NaCl, 2.7 mM KCl, 1 mM CaCl2, 12 mM NaHCO3, 5.6 mM D-glucose, 0.5 mM MgCl2, 0.37 mM NaH2PO4, 25 mM HEPES, pH 7.4) and left in Tyrode’s buffer. For kinetics of β-arrestin recruitment or β-arrestin binding to receptor and AP-2 experiments, cells were serum starved for 30 min, pretreated with 21 (50 µM) or Barbadin (100 µM) for 30 min, stimulated with 100 nM AngII or 1 µM BK and BRET signals were monitored at indicated times using a Victor X Light plate reader (PerkinElmer). Coelenterazine H (final concentration of 5 µM) was added 3–5 min prior to BRET measurements. Filter set was 460/80 nm and 535/30 nm for detecting the RlucII Renilla luciferase (donor) and YFP (acceptor) light emissions, respectively. The BRET ratio was determined by calculating the ratio of the light emitted by YFP over the light emitted by the RlucII. For G protein activation, cells were serum starved, pretreated with compounds for 30 min, stimulated with 100 nM AngII for 2 min (Gαq, Gαi3, and Rho sensors) or 5 min (PKC sensor). […]

Row | AngII-promoted BRET, binding of β-arrestin2 to AP-2 (AngII + Barbadin (100 μM), time 0 min) | AngII-promoted BRET, binding of β-arrestin2 to AP-2 (AngII + Barbadin (100 μM), time 2 min) | AngII-promoted BRET, binding of β-arrestin2 to AP-2 (AngII + Barbadin (100 μM), time 4 min) | AngII-promoted BRET, binding of β-arrestin2 to AP-2 (AngII + Barbadin (100 μM), time 8 min) | AngII-promoted BRET, binding of β-arrestin2 to AP-2 (AngII + Barbadin (100 μM), time 12 min) | AngII-promoted BRET, binding of β-arrestin2 to AP-2 (AngII + Barbadin (100 μM), time 20 min) | AngII-promoted BRET, binding of β-arrestin2 to AP-2 (AngII + Barbadin (100 μM), time 24 min) | inhibition of the formation of the β-arrestin/AP-2 complex mediated by AT1R (Barbadin 100 µM) | SMILES | inhibition at 50 µM (21 at 50 µM, read-out: inhibition of the AngII-mediated β-arrestin/AP-2 complex formation) | AngII-promoted BRET, binding of β-arrestin2 to AP-2 (AngII + Comp 21 (50μM), time 0 min) | AngII-promoted BRET, binding of β-arrestin2 to AP-2 (AngII + Comp 21 (50μM), time 2 min) | AngII-promoted BRET, binding of β-arrestin2 to AP-2 (AngII + Comp 21 (50μM), time 4 min) | AngII-promoted BRET, binding of β-arrestin2 to AP-2 (AngII + Comp 21 (50μM), time 8 min) | AngII-promoted BRET, binding of β-arrestin2 to AP-2 (AngII + Comp 21 (50μM), time 12 min) | AngII-promoted BRET, binding of β-arrestin2 to AP-2 (AngII + Comp 21 (50μM), time 20 min) | AngII-promoted BRET, binding of β-arrestin2 to AP-2 (AngII + Comp 21 (50μM), time 24 min)
1 |  |  |  |  |  |  |  |  | CC(C)C(=O)N1CCN(c2ccc(NC(=O)c3cc4ccccc4o3)cc2Cl)CC1 [Compound 21] | ≤ 20% | 0 | 0.0291 and 0.02266 and 0.02708 | 0.03981 and 0.03342 and 0.03976 | 0.0471 and 0.04211 and 0.04647 | 0.04695 and 0.03931 and 0.04772 | 0.04571 and 0.04297 and 0.04991 | 0.04875 and 0.04367 and 0.04987
2 | 0 | 0.00931 and 0.01844 and 0.00859 | 0.01939 and 0.02951 and 0.01857 | 0.01773 and 0.0324 and 0.02267 | 0.01829 and 0.0336 and 0.02027 | 0.02374 and 0.03345 and 0.02061 | 0.01867 and 0.03563 and 0.02365 | more than 50% | Nn1cnc2scc(-c3ccc(Cc4ccccc4)cc3)c2c1=O [Barbadin, reference compound] |  |  |  |  |  |  |  | 
